Measurements taken from patent US20070161648A1, “Substituted dihydro-isoindolones useful in treating kinase disorders” (priority 2005, published 2007).

Columns and labels:
[1] = tested on: HeLa cervical adenocarcinoma; assay: Cell proliferation inhibition assay (14C-thymidine incorporation), HeLa; type: cell-based; conditions: Homo sapiens
From the text: (§1) The ability of a test compound to inhibit unregulated cell proliferation may be determined by measuring incorporation of ^14C-labelled thymidine into newly synthesized DNA within cell lines derived from carcinomas originating from several tissues. Accordingly, the effect of a test compound on proliferation of cells with a variety of phenotypes may be determined.
(§2) Carcinoma cell lines used include the HeLa cervical adenocarcinoma from the American Type Culture Collection (ATCC Cat. #CCL2), A375 malignant melanoma (ATCC Cat. #CRL-1619) and HCT-116 colon carcinoma (ATCC Cat. #CCL-247).
(§3) The carcinoma cells are trypsinized and counted. The cells (3000-8000 count) are added to each well of a 96-well CytoStar tissue culture treated scintillating microplate (Amersham #RPNQO160) in complete medium (100 μL) and the plate is then incubated in complete medium for 24 hrs at 37° C. in an inert atmosphere containing 5% CO2.
(§4) Test compound (1 μL) in 100% DMSO is added to the plate test-wells with DMSO only added to control-wells. The plate is incubated in complete medium for a second 24 hr period at 37° C. in an atmosphere containing 5% CO2.
(§5) An aliquot of a solution of Methyl ^14C-thymidine (56 mC/mmol) (NEN #NEC568 or Amersham #CFA532) and complete medium (20 uL to provide 0.2 μCi/well) is then added to each well and the plate is incubated for a third 24 hr period at 37° C. in an atmosphere containing 5% CO2.
(§6) The plate contents are then discarded, the plate is washed twice with PBS (200 μL) and then PBS (200 μL) is added to each well. The plate is sealed and the degree of methyl ^14C-thymidine incorporation is quantified on a Packard Top Count.
(§7) For a series of test concentrations, the IC50 was derived by graphing percent inhibition against the log of the concentrations tested for a given compound with results shown in Table 2.

[2] = tested on: HCT-116 colon carcinoma; assay: Cell proliferation inhibition assay (14C-thymidine incorporation), HCT116; type: cell-based; conditions: Homo sapiens
From the text: as §1, §2, §3, §4, §5, §6, §7

[3] = tested on: A375 malignant melanoma; assay: Cell proliferation inhibition assay (14C-thymidine incorporation), A375; type: cell-based; conditions: Homo sapiens, A-375
From the text: as §1, §2, §3, §4, §5, §6, §7

[4] = molecular target: T1, Aurora-A (Mus musculus, UniProt P97477); assay: Aurora-A screening assay (33P-ATP FlashPlate kinase assay); type: biochemical, murine; conditions: for inhibition at 100 µM: single test concentration 100 μM; for IC50: 10 μM ATP
T1 construct: followed by the full length protein encoding the murine Aurora-A; polyhistidine (N); made in house; host or cells: Sf9 insect cells
T1 sequence (P97477 1-395): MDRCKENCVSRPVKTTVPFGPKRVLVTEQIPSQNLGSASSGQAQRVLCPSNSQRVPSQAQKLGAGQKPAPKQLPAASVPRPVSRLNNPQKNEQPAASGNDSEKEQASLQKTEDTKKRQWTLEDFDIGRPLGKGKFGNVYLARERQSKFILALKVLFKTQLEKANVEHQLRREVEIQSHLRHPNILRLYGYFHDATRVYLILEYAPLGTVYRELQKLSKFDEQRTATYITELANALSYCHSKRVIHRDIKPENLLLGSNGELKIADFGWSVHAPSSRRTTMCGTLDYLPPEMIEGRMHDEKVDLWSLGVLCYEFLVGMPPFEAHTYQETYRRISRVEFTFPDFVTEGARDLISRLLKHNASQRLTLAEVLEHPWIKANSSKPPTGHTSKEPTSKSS
Method: (§8) 70 μL of the kinase reaction mixture was dispensed into the well of a streptavidin coated FlashPlate™ (Cat. # SMP103, NEN, Boston, Mass.).
(§9) Test compound stock in 100% DMSO (1 μL) was added to the wells resulting in a final concentration of 1% DMSO in the reaction with a 100 μL final reaction volume. Each enzyme was diluted in 50 mM Tris-HCl pH=8.0, 0.1% BSA and 30 μL was added to each well to initiate the reaction. The reaction was incubated for one hour at 30° C. At the end of the 1 hr incubation, the reaction was terminated by aspirating the mixture from the plate and washing the wells twice with PBS containing 100 mM EDTA. The biotinylated peptide substrate became immobilized on the Flashplate™ and the incorporation of ^33P-γ-ATP was measured by reading the plate on a scintillation counter. Inhibition of the enzymatic activity was measured by observing a reduced amount of ^33P-γ-ATP incorporated into the immobilized peptide.
Aurora-A is a fusion protein containing a polyhistidine tag at the N terminus followed by the full length protein encoding the murine Aurora-A (Accession number GB BC014711) expressed and purified from sf9 insect cells. The assay used 400 ng of the N-terminal biotinylated peptide biotin-[…]-amide (Aurora-A) per well.
(§10) A maximum and minimum signal for the assay was determined on each plate. The percent inhibition of a test compound was calculated according to the formula: [formula]

[5] = molecular target: T2, VEGF-R2 kinase domain (Rattus norvegicus, UniProt O08775); assay: VEGF-R2 screening assay (33P-ATP FlashPlate kinase assay); type: biochemical; conditions: for inhibition at 100 µM: single test concentration 100 μM, read-out: VEGF-R2 percent inhibition; for IC50: 10 μM ATP
T2 construct: polyhistidine (N)
T2 sequence (O08775 786-1343): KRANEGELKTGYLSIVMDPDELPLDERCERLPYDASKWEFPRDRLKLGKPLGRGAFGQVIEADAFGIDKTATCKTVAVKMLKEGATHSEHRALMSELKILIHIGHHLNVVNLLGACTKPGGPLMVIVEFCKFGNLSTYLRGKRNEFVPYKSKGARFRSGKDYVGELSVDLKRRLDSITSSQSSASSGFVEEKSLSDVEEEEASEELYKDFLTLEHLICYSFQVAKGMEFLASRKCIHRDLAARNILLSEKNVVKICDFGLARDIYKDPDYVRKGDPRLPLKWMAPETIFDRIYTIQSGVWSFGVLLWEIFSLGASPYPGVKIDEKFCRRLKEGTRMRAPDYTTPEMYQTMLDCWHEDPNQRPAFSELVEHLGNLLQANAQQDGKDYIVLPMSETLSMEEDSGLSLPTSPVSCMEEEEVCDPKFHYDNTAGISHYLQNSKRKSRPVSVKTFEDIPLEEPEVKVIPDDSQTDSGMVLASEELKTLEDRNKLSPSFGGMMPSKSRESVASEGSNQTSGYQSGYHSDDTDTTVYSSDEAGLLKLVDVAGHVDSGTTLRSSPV
Method: as §8, §9
The assay used 150 ng of the N-terminal biotinylated peptide biotin-[…]-amide (VEGF-R2) per well.
as §10

[6] = read-out: Aurora-A percent inhibition

IC50 [1] [µM] | IC50 [2] [µM] | IC50 [3] [µM] | inhibition at 100 µM [4, 6] [%] | inhibition at 100 µM [5] [%] | inhibition at 10 µM ([4]; single test concentration 10 μM, read-out: Aurora-A percent inhibition) [%] | IC50 [5] [µM] | IC50 [4] [µM] | Structure (SMILES)
20.3 | 17 | 5.31 | 57 | 65 | – | – | – | CC(C)(C)OC(=O)n1c(-c2cccc3c2C(=O)NC3)cc2cc(OCCN3CCOCC3)ccc21 [Cpd 30, 5-(2-morpholin-4-yl-ethoxy)-2-(3-oxo-2,3-dihydro-1H-isoindol-4-yl)-indole-1-carboxylic acid tert-butyl ester]
9.42 | 3.09 | 5.23 | – | – | 52 | 0.0229 | – | COc1ccc2[nH]c(-c3ccc([N+](=O)[O-])c4c3C(=O)NC4)cc2c1 [Cpd 16, 7-(5-methoxy-1H-indol-2-yl)-4-nitro-2,3-dihydro-isoindol-1-one]
5.81 | 5.74 | 2.7 | – | – | – | 0.074 | 0.135 | O=C1NCc2cccc(-c3cc4cc(OCCN5CCOCC5)ccc4[nH]3)c21 [Cpd 8, 7-[5-(2-morpholin-4-yl-ethoxy)-1H-indol-2-yl]-2,3-dihydro-isoindol-1-one]
44.3 | 39.5 | 39.6 | 40 | 17 | – | – | – | COc1cc2c(c(-c3cc4cc(OC)ccc4n3C(=O)OC(C)(C)C)c1)C(=O)NC2 [Cpd 31, 5-Methoxy-2-(6-methoxy-3-oxo-2,3-dihydro-1H-isoindol-4-yl)-indole-1-carboxylic acid tert-butyl ester]
> 10 | > 10 | > 10 | – | – | – | 0.142 | 0.205 | COc1ccc2[nH]c(-c3cccc4c3C(=O)NC4)nc2c1 [Cpd 11, 7-(5-methoxy-1H-benzoimidazol-2-yl)-2,3-dihydro-isoindol-1-one]
